Test results: patent publication US20230109839A1, “THERAPEUTIC AGENT FOR TAUOPATHIES” (SUMITOMO PHARMA CO., LTD., priority 2020, published 2023)
Where two headings read alike, the source gives them in different places.

Biological target: T1, human Nav1.1 (Homo sapiens, UniProt P35498)
T1 construct: host or cells: HEK293
Assay: Amplification of Nav1.1-derived voltage-gated sodium current (Nav1.1 current), automated patch clamp (Test 1)
Type: cell-based
Procedure: Test 1: Evaluation of the Amplification of Nav1.1-Derived Voltage-Gated Sodium Current (Nav1.1 Current) by Using a Cell Line Stably Expressing Human Nav1.1
(1) Preparation of Test Compound Solution
Test compounds were prepared by dissolving in DMSO at 200 times of the concentration at evaluation, and diluting the obtained solution to twice the concentration of evaluation with an extracellular fluid (135 mmol/L NaCl, 4 mmol/L KCl, 1 mmol/L MgCl2, 5 mmol/L CaCl2, 5 mmol/L Glucose, 10 mmol/L HEPES).
(2) Induction and Measurement of Nav1.1 Current
A HEK293 cell line stably expressing human Nav1.1 (cat #CYL3009, Eurofins DiscoverX Products, LLC, Human Embryonic Kidney 293) was purchased, and used in the present test. Nav1.1 current was induced by stimulating Ramp wave voltage. Detection of current which accompanied with the stimulation of voltage was carried out by a patch-clamp voltage-clamp method using HTS automated patch clamp system (SynchroPatch 768PE, Nanion Technologies GmbH, Germany). Only cells with more than 500 pA of voltage-gated sodium channel current were used for the evaluation of the activity of compounds on Nav1.1 current because there was the possibility that currents derived from endogenous voltage-gated sodium channels accounted for large proportion in cells with less than 500 pA of voltage-gated sodium channel current which was induced by stimulating Ramp wave voltage.
(3) Pharmacological Effect on Nav1.1 Current
The effect of test compounds on the amplification of Nav1.1-derived voltage-gated sodium current was evaluated by using a cell line stably expressing human Nav1.1 and HTS automated patch clamp system. In other words, test compounds were added in an extracellular fluid containing 1% DMSO, and evaluated as a change of the peak value of Nav1.1 current and the area under the curve (AUC).
(4) Method for Pharmacological Evaluation
The Nav1.1 current amplification rates of test compounds were calculated by the following formula:
Nav1.1 current amplification rate (%)=100×[the peak value of Nav1.1 current or the area under the curve after the addition of test compounds]/[the peak value of Nav1.1 current or the area under the curve before the addition of test compounds]−100

[1] = HEK293, Concentration for evaluation 1 μM, HEK293 cell line stably expressing human Nav1.1, read-out: Nav1.1 current amplification rate (%)
[2] = Concentration for evaluation 10 μM, HEK293 cell line stably expressing human Nav1.1
[3] = Concentration for evaluation 1 μM, HEK293 cell line stably expressing human Nav1.1
[4] = concentration for evaluation 1 μM, HEK293 stably expressing human Nav1.1
[5] = Concentration for evaluation 3 μM, HEK293 cell line stably expressing human Nav1.1
[6] = HEK293, concentration for evaluation 1 μM, HEK293 stably expressing human Nav1.1, read-out: Nav1.1 current amplification rate (%)

CN(CC1(C)CC1)c1cnc2cnn(CC(=O)Nc3cnc4cccnc4c3)c2n1 [Example 760]
activation at 1 µM [1]: 104%

CC1CC=C(c2ccc(=O)n(CC(=O)N3C[C@@H](C)N(c4cccnc4)[C@@H](C)C3)n2)CC1 (stereo partly drawn) [Example 416]
Nav1.1 current amplification rate (%) [2]: 383%

CC1CCN(c2ncc3cnn(CC(=O)Nc4ccn5ncnc5c4)c3n2)CC1(F)F (stereo not drawn) [Example 788]
Nav1.1 current amplification rate (%) [3]: 174%

CC1CCN(c2ccc3cnn(CC(=O)Nc4ccc5cncnc5c4)c3n2)CC1 [Example 877]
Nav1.1 current amplification rate (%) [4]: 263%

CC1CC=C(c2ccc(=O)n(CC(=O)N3CCc4cc(N5CCOCC5)ccc43)n2)CC1 (stereo not drawn) [Example 246]
Nav1.1 current amplification rate (%) [2]: 136%

CC1(C)CC=C(c2ccc(=O)n(CC(=O)N3CCc4c(C5CN(C6COC6)C5)cccc43)n2)CC1 [Example 438]
Nav1.1 current amplification rate (%) [5]: 404%

Cc1cc(NC(=O)Cn2nc(C3=CCC(C)CC3)ccc2=O)cn2ncnc12 (stereo not drawn) [Example 349]
Nav1.1 current amplification rate (%) [3]: 101%

CC1CCN(c2ccc(=O)n(CC(=O)Nc3ccc4ncoc4c3)n2)CC1 [Example 73]
Nav1.1 current amplification rate (%) [2]: 92%

CC(C)c1ccc(NC(=O)Cn2ncc3ncc(N(C)C4CC4)nc32)cn1 [Example 708]
Nav1.1 current amplification rate (%) [5]: 25%

CC1CC=C(c2ccc(=O)n(CC(=O)Nc3ccc(C#N)nc3)n2)CC1 (stereo not drawn) [Example 360]
Nav1.1 current amplification rate (%) [3]: 200%

COc1cc(=O)n(CC(=O)N2CCc3c(N4CCOCC4)cccc32)nc1C1=CCC(C(F)(F)F)CC1 (stereo not drawn) [Example 476]
Nav1.1 current amplification rate (%) [2]: 343%

Cc1ccc(-c2ccc(=O)n(CC(=O)Nc3ccnnc3)n2)cc1 [Example 142]
Nav1.1 current amplification rate (%) [2]: 34%

CC1CC=C(c2ccc(=O)n(CC(=O)N3CC=C(c4ccccn4)CC3)n2)CC1 (stereo not drawn) [Example 420]
Nav1.1 current amplification rate (%) [2]: 39%

CN(c1cnc2cnn(CC(=O)Nc3ccc4ncnn4c3)c2n1)C1CC2(CC2)C1 [Example 666]
Nav1.1 current amplification rate (%) [3]: 64%

COCCNCc1cccc2c1CCN2C(=O)Cn1nc(C2=CCC(C)CC2)ccc1=O (stereo not drawn) [Example 314]
Nav1.1 current amplification rate (%) [3]: 9%

CC1CCN(c2ncc3cnn(CC(=O)Nc4ccc(C#N)cn4)c3n2)CC1(F)F (stereo not drawn) [Example 850]
activation at 1 µM [6]: 79%

O=C(Cn1ncc2cnc(N3CCC4(CCC4)C3)nc21)Nc1ccc2cncnc2c1 [Example 807]
Nav1.1 current amplification rate (%) [4]: 86%

CC1CC=C(c2ncc3cnn(CC(=O)Nc4ccc5cncnc5c4)c3n2)CC1 (stereo not drawn) [Example 805]
Nav1.1 current amplification rate (%) [4]: 373%

CC1CC=C(c2ccc(=O)n(CC(=O)Nc3cncc(C4=CCN(C)C4)c3)n2)CC1 (stereo not drawn) [Example 367]
Nav1.1 current amplification rate (%) [3]: 38%

CN(c1cnc2cnn(CC(=O)N3CCc4c3cccc4C(C)(C)O)c2n1)C1CC1 [Example 734]
Nav1.1 current amplification rate (%) [3]: 107%

CC1CCN(c2ccc(=O)n(CC(=O)Nc3ccnc(N(C)C)c3)n2)CC1 [Example 57]
Nav1.1 current amplification rate (%) [2]: 48%

CN(c1ccc2cnn(CC(=O)Nc3ccc4ncnn4c3)c2n1)C1CCCC1 [Example 875]
Nav1.1 current amplification rate (%) [4]: 43%

CC1CC=C(c2ccc(=O)n(CC(=O)N3CCc4c(-c5ccncc5)cccc43)n2)CC1 (stereo not drawn) [Example 250]
Nav1.1 current amplification rate (%) [5]: 564%

CN(CC1CCC1)c1ncc2cnn(CC(=O)Nc3cnc4cccnc4c3)c2n1 [Example 846]
activation at 1 µM [6]: 158%

Cc1cc(NC(=O)Cn2ncc3ncc(N(C)C4CC4)nc32)cc2ncnn12 [Example 704]
Nav1.1 current amplification rate (%) [3]: 109%

CN(c1ccc2cnn(CC(=O)Nc3ccc4ncncc4c3)c2n1)C1CCCC1 [Example 892]
activation at 1 µM [6]: 39%

CC(C)c1ccc(NC(=O)Cn2ncc3cnc(N4CCC5(CC5)C(F)(F)C4)nc32)cn1 [Example 829]
Nav1.1 current amplification rate (%) [4]: 54%

N#Cc1ccc(NC(=O)Cn2nc(N3CCCC(O)C3)ccc2=O)cc1 (stereo not drawn) [Example 7]
Nav1.1 current amplification rate (%) [2]: 3%

N#Cc1ccc(NC(=O)Cn2nc(N3CCC4(CCCC4)C3)ccc2=O)cc1 [Example 24]
Nav1.1 current amplification rate (%) [2]: 286%

Cc1ccc(-c2ncc3cnn(CC(=O)Nc4ccn5ncnc5c4)c3n2)cc1 [Example 787]
Nav1.1 current amplification rate (%) [3]: 50%

CN(c1cnc2cnn(CC(=O)N3CCc4c3cccc4C(F)(F)F)c2n1)C1CC1 [Example 731]
Nav1.1 current amplification rate (%) [2]: 102%

CC1CCN(c2ccc(=O)n(CC(=O)Nc3ccc4oc(=O)[nH]c4c3)n2)CC1 [Example 82]
Nav1.1 current amplification rate (%) [2]: 121%

Cc1nn(CC(=O)Nc2ccc3ncnn3c2)c2nc(N3CCC4(CCC4)C3)cnc12 [Example 739]
activation at 3 µM (HEK293, Concentration for evaluation 3 μM, HEK293 cell line stably expressing human Nav1.1, read-out: Nav1.1 current amplification rate (%)): 10%

CC1CC=C(c2ccc(=O)n(CC(=O)N3CCc4c3ccnc4-c3cn[nH]c3)n2)CC1 (stereo not drawn) [Example 285]
Nav1.1 current amplification rate (%) [3]: 113%

CC1CC=C(c2ccc(=O)n(CC(=O)Nc3ccn4ncnc4c3)n2)CC1 (stereo not drawn) [Example 330]
Nav1.1 current amplification rate (%) [3]: 191%

CC1CCN(c2ccc(=O)n(CC(=O)Nc3ccnc(N4CCOCC4)c3)n2)CC1 [Example 66]
Nav1.1 current amplification rate (%) [2]: 49%

CC1CC=C(c2ccc(=O)n(CC(=O)N3CCc4c(CN(C)C5COC5)cccc43)n2)CC1 (stereo not drawn) [Example 276]
Nav1.1 current amplification rate (%) [3]: 207%

CN(c1cnc2cnn(CC(=O)N3CCc4c(-c5ccnnc5)cccc43)c2n1)C1CC1 [Example 699]
Nav1.1 current amplification rate (%) [3]: 366%

N#Cc1ccc(NC(=O)Cn2ncc3cnc(N4CCC5(CC5)C(F)(F)C4)nc32)cn1 [Example 823]
Nav1.1 current amplification rate (%) [4]: 226%

CN(c1cnc2cnn(CC(=O)Nc3cnc4ccccc4c3)c2n1)C1CC1 [Example 719]
Nav1.1 current amplification rate (%) [3]: 78%

N#Cc1ccc(NC(=O)Cn2nc(N3CCC4(CC3)CC(F)(F)C4)ccc2=O)cc1 [Example 32]
Nav1.1 current amplification rate (%) [2]: 60%

CC(=O)N1CC=C(c2nccc3c2CCN3C(=O)Cn2nc(C3=CCC(C)CC3)ccc2=O)C1 (stereo not drawn) [Example 310]
Nav1.1 current amplification rate (%) [3]: 87%

CC1CC=C(c2ccc(=O)n(CC(=O)N3CCc4c(-c5cn[nH]c5)cccc43)n2)CC1 (stereo not drawn) [Example 254]
Nav1.1 current amplification rate (%) [5]: 309%

COc1cc(C2=CCC(C(F)(F)F)CC2)nn(CC(=O)N2CCN(c3cncc(F)c3)CC2)c1=O (stereo not drawn) [Example 482]
Nav1.1 current amplification rate (%) [2]: 219%

O=C(Cn1ncc2ncc(N3CCC4(CC4)C(F)(F)C3)nc21)Nc1ccn2ccnc2c1 [Example 744]
activation at 1 µM [1]: 147%

CC1CC=C(c2ccc(=O)n(CC(=O)N3CCc4c(C5CN(C6COC6)C5)cccc43)n2)CC1 (stereo not drawn) [Example 301]
Nav1.1 current amplification rate (%) [5]: 410%

Cc1noc2cc(NC(=O)Cn3nc(N4CCC(C)CC4)ccc3=O)ccc12 [Example 84]
Nav1.1 current amplification rate (%) [2]: 315%

CN(c1ncc2cnn(CC(=O)Nc3ccc4ncnn4c3)c2n1)C1CC1 [Example 818]
Nav1.1 current amplification rate (%) (concentration for evaluation 50 μM, HEK293 stably expressing human Nav1.1): 195%

O=C(Cn1ncc2cnc(N3CCC4(CCC4)CC3)nc21)NC1=CC2N=CN=CC2C=C1 (stereo not drawn) [Example 885]
activation at 1 µM [6]: 209%

CC1CCC(c2ccc(=O)n(CC(=O)N3CCc4c(N5CCOCC5)cccc43)n2)CC1 (mixture of isomers) [Example 472]
Nav1.1 current amplification rate (%) [2]: 387%

Cc1noc2cc(NC(=O)Cn3nc(C4=CCC(C)CC4)ccc3=O)ccc12 (stereo not drawn) [Example 240]
Nav1.1 current amplification rate (%) [2]: 241%

CN(c1cnc2cnn(CC(=O)Nc3ccn4ncnc4c3)c2n1)C1CC1(C)C (stereo not drawn) [Example 631]
Nav1.1 current amplification rate (%) [3]: 49%

CC1CC=C(c2ccc(=O)n(CC(=O)Nc3ccc(-c4cnn(C)c4)nc3)n2)CC1 (stereo not drawn) [Example 375]
Nav1.1 current amplification rate (%) [2]: 173%

Cc1ccc(-c2ccc(=O)n(CC(=O)Nc3ccc4ocnc4c3)n2)cn1 [Example 452]
Nav1.1 current amplification rate (%) [2]: 10%
